Data from patent US8778966B2, “Quinolinone derivatives as PARP and tank inhibitors” (Janssen Pharmaceutica, NV, priority 2007, dated 2014).

What was measured:
Assay type in all cases: cell-based, human
[1] = test system: HCT116 cells; experiment: Antiproliferative activity, Alamar Blue assay, HCT116 cells; parameters: key to HCT116 antiproliferative activity pIC50: pIC50 = -log IC50 (IC50: conc. reducing growth to 50% of control); settings: for IC50: Homo sapiens, HCT-116, HCT116 cells, read-out: HCT116 antiproliferative activity pIC50 (converted); for HCT116 antiproliferative activity pIC50: HCT116 cells
Outline: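 Readout is resazurin fluorescence (ex 540, em 590 nm) after a 4 h dye incubation at 37 °C, following 4-day compound treatment of HCT116 cells plated 24 h earlier. Results expressed as % viable cells versus untreated; pIC50 derived from probit-fitted IC50.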

[2] = test system: PC-3 cells; experiment: Antiproliferative activity, Alamar Blue assay, PC-3 cells; settings: for IC50: Homo sapiens, PC-3, PC3 cells, read-out: PC3 antiproliferative activity pIC50 (converted); for PC3 antiproliferative activity pIC50: PC3 cells
Outline: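 Resazurin-based fluorescence (540 nm ex/590 nm em) measured after 4-day compound treatment plus 24 hrs dye incubation at 37° C. Cells plated at 4.5×10^3 cells/ml, adhered 24 hr first. pIC50 from probit-derived IC50 on % viable cells versus untreated, triplicate wells.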

[3] = test system: PC3 cells; experiment: EB1 Comet (microtubule disruption) assay; settings: 1 hour treatment; for minimal effective concentration: Homo sapiens, PC-3, 1 h, read-out: EB1 pLAC (converted)
Outline: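 Readout is loss of Eb1 plus-end foci, scored by immunofluorescence microscopy, in PC3 cells after 1 h compound treatment at 37 °C with 0.6% final DMSO. LAC is defined as the lowest concentration leaving at least 50% of cells without Eb1 foci.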

SMILES	IC50 [1] [µM]	IC50 [2] [µM]	minimal effective concentration [3] [µM]	HCT116 antiproliferative activity pIC50 [1]	PC3 antiproliferative activity pIC50 [2]	EB1 pLAC [3]
CCc1cc2ccc(C(C#N)(CC)Cc3nc(C#N)cc(OC)n3)cc2[nH]c1=O (stereo not shown) [Compound 316]	0.631	1.26	3.16	–	–	–
CCc1cc2ccc(C(C)(C#N)Cc3ccnc(C#N)c3)cc2[nH]c1=O (stereo not shown) [Compound 324]	3.16	10	1	–	–	–
CCc1cc2ccc(C(C)(C#N)C3CCc4ccc(Br)cc43)cc2[nH]c1=O (single isomer, unassigned) [Compound 381]	–	–	–	7.3	7.0	7
Cc1cc2ccc(C(C)(C#N)Cc3cc(F)cc(F)c3)cc2[nH]c1=O (stereo not shown) [Compound 282]	0.398	1	3.16	–	–	–
CCc1cc2ccc([C@](C)(C#N)C[C@H]3CCc4ccccc4O3)cc2[nH]c1=O (single isomer, unassigned) [Compound 396]	–	7.94	–	–	–	–
CCc1cc2ccc(C(C)(C#N)Cc3ccnc(Cl)c3)cc2[nH]c1=O (stereo not shown) [Compound 341]	2.51	6.31	10	–	–	–
CCc1cc2ccc(C(C#N)(CC)Cc3cccc(OC)c3)cc2[nH]c1=O (stereo not shown) [Compound 287]	1.26	1.26	0.316	–	–	–
Cc1cc2ccc([C@@](C)(C#N)[C@H]3CCc4cc(Br)ccc43)cc2[nH]c1=O [Compound 241]	0.501	0.794	0.316	–	–	–
CCc1cc2ccc(C(C)(C#N)Cc3cccc(F)n3)cc2[nH]c1=O (stereo not shown) [Compound 331]	0.631	1.58	0.1	–	–	–
Cc1cc2ccc(C(C)(C#N)C3CCc4c(C#N)cccc43)cc2[nH]c1=O (racemic) [Compound 393]	6.31	10	10	–	–	–
CCOc1cc(C#N)nc(CC(C)(C#N)c2ccc3cc(CC)c(=O)[nH]c3c2)n1 (stereo not shown) [Compound 315]	0.631	1.26	1	–	–	–
Cc1cc2ccc(C(C)(C#N)Cc3cccc(Oc4ccccc4)n3)cc2[nH]c1=O (stereo not shown) [Compound 193]	0.398	0.631	0.1	–	–	–
CCc1cc2ccc(C(C#N)(CC)Cc3cccc(F)c3)cc2[nH]c1=O (stereo not shown) [Compound 270]	1.58	3.16	3.16	–	–	–
Cc1cc2ccc(C(C)(C#N)Cc3cccc(C#N)n3)cc2[nH]c1=O (stereo not shown) [Compound 227]	0.501	0.631	1	–	–	–
CCc1cc2ccc(C(C)(C#N)Cc3cc(F)cc(C#N)c3)cc2[nH]c1=O (stereo not shown) [Compound 266]	0.2	0.398	0.316	–	–	–
CCc1cc2ccc(C(C)(C#N)Cc3cc(C)nc(C#N)c3)cc2[nH]c1=O (stereo not shown) [Compound 328]	0.501	1.26	–	–	–	–
Cc1cc2ccc([C@@](C)(C#N)[C@@H]3CCCc4ccccc43)cc2[nH]c1=O [Compound 382]	5.01	10	–	–	–	–
CCc1cc2ccc(C(C)(C#N)Cc3cc(C)cc(Br)c3)cc2[nH]c1=O (stereo not shown) [Compound 284]	0.158	0.2	0.316	–	–	–
Cc1cc2ccc([C@@](C)(C#N)[C@H]3CCc4ccc(Br)cc43)cc2[nH]c1=O [Compound 405]	0.0501	0.0794	–	–	–	–
CCc1cc2ccc(C(C)(C#N)CCOc3nccc(OC)n3)cc2[nH]c1=O (stereo not shown) [Compound 223]	3.98	6.31	1	–	–	–
Cc1cc2ccc([C@@](C)(C#N)[C@@H]3CCc4cc(Br)ccc43)cc2[nH]c1=O [Compound 240]	10	10	> 10	–	–	–
CCc1cc2ccc(C(C)(C#N)Cc3cc(F)cc(F)c3)cc2[nH]c1=O (stereo not shown) [Compound 402]	–	–	–	6.7	6.4	6.5
Cc1cc2ccc(C(C)(C#N)Cc3cccc(Oc4ncccn4)c3)cc2[nH]c1=O (stereo not shown) [Compound 191]	0.251	0.501	0.316	–	–	–
CCc1cc2ccc(C(C#N)(CC)C3CCc4ccc(OC)cc43)cc2[nH]c1=O (stereo not shown) [Compound 403]	0.158	0.316	–	–	–	–
CCc1cc2ccc(C(C)(C#N)CN3CCN(c4ncc(Br)cn4)CC3)cc2[nH]c1=O (stereo not shown) [Compound 374]	0.501	0.794	–	–	–	–

SMILES	IC50 [1] [µM]	IC50 [2] [µM]	minimal effective concentration [3] [µM]	HCT116 antiproliferative activity pIC50 [1]	PC3 antiproliferative activity pIC50 [2]	EB1 pLAC [3]
CCc1cc2ccc(C(C)(C#N)CN3CCc4ccccc4C3)cc2[nH]c1=O (stereo not shown) [Compound 376]	2	2.51	3.16	–	–	–
CCOc1cc(N(C)C)nc(CC(C)(C#N)c2ccc3cc(CC)c(=O)[nH]c3c2)n1 (stereo not shown) [Compound 312]	0.501	1	1	–	–	–
CCc1cc2ccc(C(C)(C#N)CCOc3ccnc(SC)n3)cc2[nH]c1=O (stereo not shown) [Compound 348]	3.16	7.94	10	–	–	–
Cc1cc2ccc(C(C)(C#N)C3CCc4c(Br)cccc43)cc2[nH]c1=O (stereo not shown) [Compound 248]	0.501	0.794	0.316	–	–	–
CCc1cc2ccc(C(C)(C#N)Cc3ccc(C(F)(F)F)nc3C)cc2[nH]c1=O (stereo not shown) [Compound 340]	3.16	3.98	10	–	–	–
CCc1cc2ccc(C(C#N)(CC)Cc3cccc(CN)c3)cc2[nH]c1=O (stereo not shown) [Compound 390]	0.631	2.51	–	–	–	–
CCC(=O)c1cccc(CC(C)(C#N)c2ccc3cc(C)c(=O)[nH]c3c2)c1 (stereo not shown) [Compound 173]	0.2	0.398	0.316	–	–	–
Cc1cc2ccc([C@](C)(C#N)[C@@H]3CCc4ccc(Br)cc43)cc2[nH]c1=O [Compound 406]	10	10	–	–	–	–
Cc1cc2ccc([C@](C)(C#N)[C@H]3CCc4ccc(Br)cc43)cc2[nH]c1=O [Compound 407]	0.631	1.26	–	–	–	–
CCc1cc2ccc(C(C)(C#N)Cc3nc(C)cc(OC)n3)cc2[nH]c1=O (stereo not shown) [Compound 371]	0.316	0.398	0.316	–	–	–
CCc1cc2ccc(C(C)(C#N)C3CCc4ccc(Br)cc43)cc2[nH]c1=O (single isomer, unassigned) [Compound 380]	–	–	–	5.7	5.5	6
Cc1cc2ccc(C(C)(C#N)C3CCc4ccc(Br)cc43)cc2[nH]c1=O (stereo not shown) [Compound 249]	0.158	0.251	0.178	–	–	–
Cc1cc2ccc(C(C)(C#N)C3CCc4ccc(C#N)cc43)cc2[nH]c1=O (stereo not shown) [Compound 250]	0.2	0.316	0.316	–	–	–
CCc1cc2ccc(C(C#N)(CC)Cc3cccc(C#N)c3)cc2[nH]c1=O (stereo not shown) [Compound 265]	0.501	1	1	–	–	–
Cc1cc2ccc(C(C)(C#N)CCCCOc3ccccc3)cc2[nH]c1=O (stereo not shown) [Compound 272]	2	5.01	1	–	–	–
CCc1cc2ccc([C@@](C)(C#N)[C@H]3CCOc4ccccc43)cc2[nH]c1=O (single isomer, unassigned) [Compound 395]	0.631	0.794	0.316	–	–	–
CCc1cc2ccc(C(C)(C#N)CC3Oc4ccccc4O3)cc2[nH]c1=O (stereo not shown) [Compound 398]	5.01	7.94	3.16	–	–	–
Cc1cc2ccc(C(C)(C#N)Cc3cccc(Oc4ccccn4)c3)cc2[nH]c1=O (stereo not shown) [Compound 304]	0.251	0.398	0.1	–	–	–
CCc1cc2ccc(C(C)(C#N)Cc3cc(C)nc(Cl)c3)cc2[nH]c1=O (stereo not shown) [Compound 326]	0.794	1	3.16	–	–	–
CCc1cc2ccc(C(C#N)(CC)Cc3nc(OC)cc(OC)n3)cc2[nH]c1=O (stereo not shown) [Compound 321]	0.316	0.398	0.316	–	–	–
CCc1cc2ccc([C@](C)(C#N)C[C@H]3Cc4ccccc4O3)cc2[nH]c1=O [Compound 397]	7.94	10	3.16	–	–	–
CCc1cc2ccc(C(C)(C#N)CN(C)CCc3cn(C)c4ccccc34)cc2[nH]c1=O (stereo not shown) [Compound 303]	1.58	3.16	10	–	–	–
CCc1cc2ccc([C@](C)(C#N)[C@H]3CCOc4ccccc43)cc2[nH]c1=O (single isomer, unassigned) [Compound 394]	7.94	10	3.16	–	–	–
C=C(C)c1cccc(CC(C)(C#N)c2ccc3cc(CC)c(=O)[nH]c3c2)c1 (stereo not shown) [Compound 254]	0.501	0.794	1	–	–	–
CCc1cc2ccc(C(C)(C#N)Cc3ccnc(F)c3)cc2[nH]c1=O (stereo not shown) [Compound 330]	5.01	10	–	–	–	–
